Data reported in article PMC4569058, “High-Throughput Screening for Ligands of the HEPN Domain of Sacsin” (PLoS ONE, 2015).
Values joined by “and” are separate entries in the source; they are usually repeats but may differ in a detail not shown here. Equal values may be shown once.

Columns and labels:
Format in all cases: binding
[1] = molecular target: T1, HEPN domain of sacsin (GST-HEPN) (Homo sapiens, UniProt Q9NZJ4); test: FP competition assay (displacement of F12-ATP from GST-HEPN)
T1 construct: The HEPN domain (residues 4441–4579) was purified as in Kozlov et al; made in house; host or cells: E. coli BL21
T1 sequence (Q9NZJ4 4441-4579): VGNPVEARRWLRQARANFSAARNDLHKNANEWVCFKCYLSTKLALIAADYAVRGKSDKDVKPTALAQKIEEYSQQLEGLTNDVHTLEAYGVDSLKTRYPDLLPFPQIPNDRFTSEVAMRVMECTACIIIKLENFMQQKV
Experimental: […] The probe concentration was chosen to be the minimum concentration required to generate a sigmoidal binding curve. […] Next, a serial dilution of the competitor compounds (nucleotides and nucleotide analogs) starting at 10 mM were added. The fluorescence polarization signal in each well was measured on a SpectraMax M5e Microplate Reader.

[2] = molecular target: T2, 15N-HEPN (sacsin HEPN domain) (Homo sapiens, UniProt Q9NZJ4); test: 1H-15N HSQC NMR titration; settings: 100-400 μM 15N-HEPN, 20 mM Bis-tris pH 6.50, 70 mM NaCl, 303 K
T2 construct: The HEPN domain (residues 4441–4579) was purified as in Kozlov et al; GST (N, cleaved yes); made in house; host or cells: E. coli BL21 (M9 minimal medium with 15NH4Cl)
T2 sequence (Q9NZJ4 4441-4579): T1 sequence (Q9NZJ4 4441-4579)
Experimental: Between 100 μM and 400 μM ^15N-HEPN were used for NMR titration experiments. Heteronuclear single quantum correlation (HSQC) spectra were acquired in 20 mM Bis-tris pH 6.50 and 70 mM NaCl at 303 K using Varian 800 MHz or Bruker 600 MHz NMR spectrometers. The data were processed by NMRPipe. NMR spectra were then generated and analyzed by NMRView. The 2D HSQC spectra were overlaid with previously assigned spectrum of HEPN. The combined chemical shift perturbations in the ^1H and ^15N dimensions of each peak, calculated as (ΔδH ^2 + (0.2 × ΔδN)^2)^0.5, were plotted against the residue number.

GST = GST (Schistosoma japonicum, UniProt P08515); test: GST control FP titration; settings: 0.5 μM MABA-ATP or 5 nM F12-ATP titrated against GST
Chain of GST (P08515 whole entry): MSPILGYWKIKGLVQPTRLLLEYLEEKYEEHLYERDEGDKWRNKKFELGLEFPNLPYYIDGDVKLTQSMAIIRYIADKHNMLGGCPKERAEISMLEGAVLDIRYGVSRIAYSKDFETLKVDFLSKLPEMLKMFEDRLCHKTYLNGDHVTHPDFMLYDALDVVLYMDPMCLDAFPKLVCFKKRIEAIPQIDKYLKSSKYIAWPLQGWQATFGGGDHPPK
Experimental: (§1) A fixed concentration of the probe (0.5 μM MABA-ATP or 5 nM F12-ATP) was put in each well followed by a serial dilution of GST-HEPN starting at 10 μM. The assay was conducted in 20 mM Bis-tris pH 6.50 and 100 mM NaCl and the final volume in each well was 100 μl. The total fluorescence and fluorescence polarization signals of each well were recorded on a SpectraMax M5e Microplate Reader at the optimal excitation and emission wavelengths of the probes. A titration curve was generated by plotting the fluorescence polarization signals as milli-polarization units (mP) against a log scale of GST-HEPN concentration (μM).
Supplementary file pone.0137298.s002.tif: S2 Fig GST control titration. 0.5 μM MABA-ATP and 5 nM F12-ATP were titrated against various concentrations of GST to verify whether GST contributes to the observed FP signal in the presence of GST-HEPN. […] (TIF) Click here for additional data file.

[3] = molecular target: T1, HEPN domain of sacsin (GST-HEPN); test: FP titration assay (fluorescent ATP probe vs GST-HEPN); settings: for Kd: 20 mM Bis-tris pH 6.50, 100 mM NaCl
Experimental: N-methylanthraniloyl 8[(4-amino)butyl]-amino-ATP (MABA-ATP) and fluorescein-12-ATP (F12-ATP) were purchased from Jena Bioscience and PerkinElmer, respectively. The excitation and emission wavelengths of MABA-ATP were reported to be 335 nm and 440 nm, and those of F12-ATP were reported to be 496 nm and 517 nm by the commercial suppliers. The optimal excitation and emission wavelengths were determined under FP assay conditions using 0.2 μM MABA-ATP and 3.3 nM F12-ATP in 100 mM NaCl, 20 mM Bis-tris, pH 6.5.
as §1

[4] = 5 nM F12-ATP and 120 nM GST-HEPN, read-out: affinity for GST-HEPN estimated from FP competition curve, Kd
[5] = HTS hit confirmation, 5 nM F12-ATP and 200 nM GST-HEPN, read-out: Binding Affinity for HEPN

Row | Molecule | Kd [1, 4] | binding to HEPN observed by NMR (chemical shift perturbations) [2] | also measured
1 | Nc1ncnc2c1ncn2[C@@H]1O[C@H](COP(=O)(O)OP(=O)(O)O)[C@@H](O)[C@H]1O [ADP, adenosine 5´-diphosphate] | 19.2 µM |  | 
2 | Nc1ncnc2c1ncn2C1OC(COP(=O)(O)OP(=O)(O)OCC2OC(O)C(O)C2O)C(O)C1O (stereo not drawn) [ADP-ribose, adenosine 5´-diphosphoribose] | 205 µM |  | 
3 | O=C(OCCCl)Oc1c(Br)cc2sc(=O)oc2c1Br [AG205] |  |  | Kd [1, 5]: 9.4 µM
4 | Cc1ccccc1NS(=O)(=O)c1ccc(NC(=O)c2n[nH]c([N+](=O)[O-])c2Br)cc1 [AK968] |  | Binding was observed by NMR | Kd [1, 5]: 2.1 µM
5 | Nc1ncnc2c1ncn2[C@@H]1O[C@H](COP(=O)(O)O)[C@@H](O)[C@H]1O [AMP, adenosine 5´-monophosphate] | 102 µM |  | 
6 | O=C(Nc1cccc2c(=O)[nH][nH]c(=O)c12)c1ccc(=O)oc1 [AN652] |  | Binding was observed by NMR | Kd [1, 5]: 2.8 µM
7 | O=c1c(C(c2ccc3c(c2)OCO3)c2c(O)nc3n(c2=O)CCS3)c(O)nc2n1CCS2 [AN670] |  | Binding was observed by NMR | fold higher affinity than the other two HTS hits AK968 and AN652 [1]: two- to three-fold; Kd [1, 5]: 1.1 µM
8 | Nc1ncnc2c1ncn2[C@@H]1O[C@H](COP(=O)(O)OP(=O)(O)OP(=O)(O)OC[C@H]2O[C@@H](n3cnc4c(N)ncnc43)[C@H](O)[C@@H]2O)[C@@H](O)[C@H]1O [Ap3A, p1, p3-di(adenosine-5´) triphosphate] | 51.2 µM |  | 
9 | Nc1ncnc2c1ncn2[C@@H]1O[C@H](COP(=O)(O)OP(=O)(O)OP(=O)(O)OP(=O)(O)OC[C@H]2O[C@@H](n3cnc4c(N)ncnc43)[C@H](O)[C@@H]2O)[C@@H](O)[C@H]1O [Ap4A, p1,-p4-di(adenosine-5´) tetraphosphate] | 20.5 µM |  | 
10 | CC(C)(COP(=O)(O)OP(=O)(O)OC[C@H]1O[C@@H](n2cnc3c(N)ncnc32)[C@H](O)[C@@H]1OP(=O)(O)O)[C@@H](O)C(=O)NCCC(=O)NCCS [CoA, coenzyme A] | 5.2 µM |  | 
11 | O=C(O)CN(CCN(CC(=O)O)CC(=O)O)CC(=O)O [EDTA] | ~510 µM and 510 µM | interacts with GTP- and malonate ion-binding site | fold weaker affinity than GTP [1]: ~ 500 fold
12 | Nc1nc2c(ncn2[C@@H]2O[C@H](COP(=O)(O)OP(=O)(O)OP(=O)(O)OP(=O)(O)O)[C@@H](O)[C@H]2O)c(=O)[nH]1 [G-tetra-P, guanosine 5´-tetraphosphate] | 0.47 µM | Changes in chemical shifts were observed for most GTP-binding residues | fold higher affinity for HEPN than GTP [1]: about two-fold
13 | Nc1nc2c(ncn2[C@@H]2O[C@H](COP(=O)(O)OP(=O)(O)O)[C@@H](O)[C@H]2O)c(=O)[nH]1 [GDP, guanosine 5´-diphosphate] | 1.23 µM |  | 
14 | Nc1nc2c(ncn2[C@@H]2O[C@H](COP(=O)(O)OP(=O)(O)OP(=O)(O)O)[C@@H](O)[C@H]2O)c(=O)[nH]1 [GTP, guanosine 5´-triphosphate] | 0.81 µM | binds to HEPN at its dimerization surface | fold higher affinity relative to ATP [1]: approximately 6 fold
15 | Nc1nc2c(ncn2[C@@H]2O[C@H](COP(=O)(O)OP(=O)(O)OP(=O)(O)OP(=O)(O)OC[C@H]3O[C@@H](n4cnc5c(=O)[nH]c(N)nc54)[C@H](O)[C@@H]3O)[C@@H](O)[C@H]2O)c(=O)[nH]1 [Gp4G, p1, p4-di(guanosine-5´) tetraphosphate] | 1.23 µM |  | 
16 | O=P(O)(O)OC1C(OP(=O)(O)O)C(OP(=O)(O)O)C(OP(=O)(O)O)C(OP(=O)(O)O)C1OP(=O)(O)O (stereo not drawn) [IP6, phytic acid/myo-inositol hexakis(dihydrogen phosphate)] | 8.46 µM |  | 
17 | CNc1ccccc1C(=O)NCCCCNc1nc2c(N)ncnc2n1[C@@H]1O[C@H](COP(=O)(O)OP(=O)(O)OP(=O)(O)O)[C@@H](O)[C@H]1O [MABA-ATP, N-methylanthraniloyl 8[(4-amino)butyl]-amino-ATP] |  |  | binding of probe to GST alone (GST): did not show binding; Kd ([3]; 0.5 μM MABA-ATP titrated against GST-HEPN, read-out: binding affinity of the probe estimated from the titration curve): ~3 µM and 3 µM
18 | fluorescein-12-ATP [F12-ATP] |  | interacts with all HEPN residues involved in GTP-binding | binding of probe to GST alone (GST): did not show binding; fold higher affinity relative to ATP [1]: 65 fold; Kd ([3]; 5 nM F12-ATP titrated against GST-HEPN, read-out: binding affinity of the probe estimated from the titration curve (KD1)): 0.078 µM and ~0.078 µM; fold decrease in affinity upon the addition of MgCl2 ([3]; F12-ATP vs GST-HEPN titration in the presence of 1 mM MgCl2 compared to without MgCl2): 10 fold
